# What was measured:
# Assay in all cases: NCI DTP in-vitro dose response, Ovarian Cancer
# Format in all cases: cell-based
# OVCAR-3 = conditions: for GI50: read-out: GI50
# IGROV1 = tested on: IGROV1
# SK-OV-3 = conditions: for GI50: read-out: GI50
# OVCAR-4 = conditions: for GI50: read-out: GI50
# OVCAR-5 = conditions: for GI50: read-out: GI50
# OVCAR-8 = conditions: for GI50: read-out: GI50
smiles,measurement,setting,value
O=C1c2ccccc2C(=O)c2c1ccc1nccnc21 [TABLE 5-6],CC50,OVCAR-3,> 100 µM
same,TGI,OVCAR-3,1.25E−5
same,Percent Growth,OVCAR-3; Log10 Concentration −4.0,−42%
same,Percent Growth,OVCAR-3; Log10 Concentration −5.0,4%
same,Percent Growth,OVCAR-3; Log10 Concentration −6.0,77%
same,Percent Growth,OVCAR-3; Log10 Concentration −7.0,95%
same,Percent Growth,OVCAR-3; Log10 Concentration −8.0,104%
same,GI50,OVCAR-3,2.34 µM
same,CC50,IGROV1,> 100 µM
same,GI50,IGROV1,2.55 µM
same,TGI,IGROV1,3.59E−5
same,Percent Growth,IGROV1; Log10 Concentration −4.0,−27%
same,Percent Growth,IGROV1; Log10 Concentration −5.0,33%
same,Percent Growth,IGROV1; Log10 Concentration −6.0,61%
same,Percent Growth,IGROV1; Log10 Concentration −7.0,74%
same,Percent Growth,IGROV1; Log10 Concentration −8.0,90%
same,CC50,SK-OV-3,> 100 µM
same,TGI,SK-OV-3,>1.00E−4
same,Percent Growth,SK-OV-3; Log10 Concentration −4.0,8%
same,Percent Growth,SK-OV-3; Log10 Concentration −5.0,44%
same,Percent Growth,SK-OV-3; Log10 Concentration −6.0,79%
same,Percent Growth,SK-OV-3; Log10 Concentration −7.0,89%
same,Percent Growth,SK-OV-3; Log10 Concentration −8.0,91%
same,GI50,SK-OV-3,6.95 µM
same,CC50,OVCAR-4,> 100 µM
same,TGI,OVCAR-4,>1.00E−4
same,Percent Growth,OVCAR-4; Log10 Concentration −4.0,3%
same,Percent Growth,OVCAR-4; Log10 Concentration −5.0,51%
same,Percent Growth,OVCAR-4; Log10 Concentration −6.0,74%
same,Percent Growth,OVCAR-4; Log10 Concentration −7.0,91%
same,Percent Growth,OVCAR-4; Log10 Concentration −8.0,102%
same,GI50,OVCAR-4,10.5 µM
same,CC50,OVCAR-5,> 100 µM
same,TGI,OVCAR-5,>1.00E−4
same,Percent Growth,OVCAR-5; Log10 Concentration −4.0,19%
same,Percent Growth,OVCAR-5; Log10 Concentration −5.0,77%
same,Percent Growth,OVCAR-5; Log10 Concentration −6.0,98%
same,Percent Growth,OVCAR-5; Log10 Concentration −7.0,90%
same,Percent Growth,OVCAR-5; Log10 Concentration −8.0,97%
same,GI50,OVCAR-5,59.3 µM
same,CC50,OVCAR-8,> 100 µM
same,TGI,OVCAR-8,>1.00E−4
same,Percent Growth,OVCAR-8; Log10 Concentration −4.0,13%
same,Percent Growth,OVCAR-8; Log10 Concentration −5.0,36%
same,Percent Growth,OVCAR-8; Log10 Concentration −6.0,83%
same,Percent Growth,OVCAR-8; Log10 Concentration −7.0,89%
same,Percent Growth,OVCAR-8; Log10 Concentration −8.0,97%
same,GI50,OVCAR-8,5.07 µM
CCc1nc2ccc3c(c2[nH]1)C(=O)c1ccccc1C3=O [TABLE 4-6],CC50,OVCAR-3,> 100 µM
same,TGI,OVCAR-3,>1.00E−4
same,Percent Growth,OVCAR-3; Log10 Concentration −4.0,8%
same,Percent Growth,OVCAR-3; Log10 Concentration −5.0,57%
same,Percent Growth,OVCAR-3; Log10 Concentration −6.0,93%
same,Percent Growth,OVCAR-3; Log10 Concentration −7.0,106%
same,Percent Growth,OVCAR-3; Log10 Concentration −8.0,100%
same,GI50,OVCAR-3,14.1 µM
same,CC50,IGROV1,> 100 µM
same,GI50,IGROV1,1.34 µM
same,TGI,IGROV1,1.69E−5
same,Percent Growth,IGROV1; Log10 Concentration −4.0,−19%
same,Percent Growth,IGROV1; Log10 Concentration −5.0,6%
same,Percent Growth,IGROV1; Log10 Concentration −6.0,56%
same,Percent Growth,IGROV1; Log10 Concentration −7.0,88%
same,Percent Growth,IGROV1; Log10 Concentration −8.0,89%
same,CC50,SK-OV-3,> 100 µM
same,TGI,SK-OV-3,>1.00E−4
same,Percent Growth,SK-OV-3; Log10 Concentration −4.0,14%
same,Percent Growth,SK-OV-3; Log10 Concentration −5.0,12%
same,Percent Growth,SK-OV-3; Log10 Concentration −6.0,76%
same,Percent Growth,SK-OV-3; Log10 Concentration −7.0,92%
same,Percent Growth,SK-OV-3; Log10 Concentration −8.0,95%
same,GI50,SK-OV-3,2.55 µM
same,CC50,OVCAR-4,> 100 µM
same,TGI,OVCAR-4,>1.00E−4
same,Percent Growth,OVCAR-4; Log10 Concentration −4.0,15%
same,Percent Growth,OVCAR-4; Log10 Concentration −5.0,37%
same,Percent Growth,OVCAR-4; Log10 Concentration −6.0,83%
same,Percent Growth,OVCAR-4; Log10 Concentration −7.0,96%
same,Percent Growth,OVCAR-4; Log10 Concentration −8.0,98%
same,GI50,OVCAR-4,5.18 µM
same,CC50,OVCAR-5,> 100 µM
same,TGI,OVCAR-5,>1.00E−4
same,Percent Growth,OVCAR-5; Log10 Concentration −4.0,45%
same,Percent Growth,OVCAR-5; Log10 Concentration −5.0,85%
same,Percent Growth,OVCAR-5; Log10 Concentration −6.0,94%
same,Percent Growth,OVCAR-5; Log10 Concentration −7.0,91%
same,Percent Growth,OVCAR-5; Log10 Concentration −8.0,88%
same,GI50,OVCAR-5,75.7 µM
same,CC50,OVCAR-8,> 100 µM
same,TGI,OVCAR-8,>1.00E−4
same,Percent Growth,OVCAR-8; Log10 Concentration −4.0,24%
same,Percent Growth,OVCAR-8; Log10 Concentration −5.0,58%
same,Percent Growth,OVCAR-8; Log10 Concentration −6.0,92%
same,Percent Growth,OVCAR-8; Log10 Concentration −7.0,91%
same,Percent Growth,OVCAR-8; Log10 Concentration −8.0,96%
same,GI50,OVCAR-8,17.7 µM
